In paper doi:10.1101/2024.11.03.621781v1 (bioRxiv, 2024):

What was measured:
Format in all cases: cell-based
[1] = system: HeLa cells; test: Autophagy flux assay with Bafilomycin A1, LC3B/LAMP2 double immunofluorescence; conditions: control cells treated with BafA1
[2] = system: HeLa cells; test: LC3B lipidation assay by western blot; conditions: GAPDH loading control
[3] = system: HeLa cells; test: LC3B immunofluorescence, autophagy induction; conditions: time-dependent LC3B immunostaining, then return to baseline

Row | SMILES | autophagosome accumulation (LC3B puncta) in control cells [1] | LC3B-II/LC3B-I ratio (LC3B lipidation) [2] | time of peak autophagy induction [3] [min]
1 | CO/C1=C\C(C)=C\[C@@H](C)[C@@H](O)[C@@H](C)C/C(C)=C/C=C/[C@H](OC)[C@@H]([C@@H](C)[C@@H](O)[C@H](C)[C@@]2(O)C[C@@H](O)[C@H](C)[C@@H](C(C)C)O2)OC1=O [BafA1, Bafilomycin A1] | marked accumulation of autophagosomes |  | 
2 | CO[C@H]1C[C@@H]2CC[C@@H](C)[C@@](O)(O2)C(=O)C(=O)N2CCCC[C@H]2C(=O)O[C@H]([C@H](C)C[C@@H]2CC[C@@H](O)[C@H](OC)C2)CC(=O)[C@H](C)/C=C(\C)[C@@H](O)[C@@H](OC)C(=O)[C@H](C)C[C@H](C)/C=C/C=C/C=C/1C [rapamycin] |  | increased LC3B- II/LC3B-I ratio | 90
